In patent US9328092B2, “Acrylamide compounds as histamine H3 receptor ligands” (Suven Life Sciences Limited, priority 2012, dated 2016):
Structures can show the parent of a compound that is named as a salt.

How the values were obtained:
[1] = biological target: Human or Rat Histamine H3 Receptor (UniProt Q9Y5N1); assay: Binding assay for human or rat histamine H3 receptor ([3H] R-α-methylhistamine displacement); conditions: [3H] R-α-methylhistamine 3.0 nM, rat brain frontal cortex or recombinant human receptor in CHO cells (source for table not stated)
Experimental: Binding and Functional Assays for Human or Rat Histamine H3 Receptor
Compounds can be evaluated according to the following procedures.
• Receptor source: Rat brain frontal cortex or recombinant human cDNA expressed in CHO cells • Radioligand: [^3H] R-α-methylhistamine • Final ligand concentration—[3.0 nM] • Non-specific determinant: R-α-methylhistamine (100 μM) • Reference compound: R-α-methylhistamine • Positive control: R-α-methylhistamine Incubation Conditions:
Increasing concentrations of test compounds or standard were incubated with membrane receptors and radioligand in 5 mM MgCl2 and 50 mM TRIS-HCl (pH 7.4) for 60 minutes at room temperature. The reaction was terminated by rapid vacuum filtration onto the glass fiber filters. Radioactivity trapped onto the filters was determined and compared to the control values in order to ascertain any interactions of the test compound(s) with either cloned human or rat receptor binding site.

Male Wister rats = assay: Object recognition task model; format: in vivo; conditions: p.o.; for Exploration time mean ± S.E.M, Familiar object / Exploration time mean ± S.E.M, Novel object: choice trial T2
Experimental: The cognition enhancing properties of compounds of this invention were estimated using a model of animal cognition: the object recognition task model.
Male Wister rats (230-280 grams) were used as experimental animals. Four animals were housed in each cage. Animals were kept on 20% food deprivation before one day and given water ad libitum throughout the experiment and maintained on a 12 hours light/dark cycle. Also the rats were habituated to individual arenas for 1 hour in the absence of any objects.
One group of 12 rats received vehicle (1 mL/Kg) orally and another set of animals received compound of the formula (I) either orally or i.p., before one hour of the familiar (T1) and choice trial (T2).
The experiment was carried out in a 50×50×50 cm open field made up of acrylic. In the familiarization phase, (T1), the rats were placed individually in the open field for 3 minutes, in which two identical objects (plastic bottles, 12.5 cm height×5.5 cm diameter) covered in yellow masking tape alone (a1 and a2) were positioned in two adjacent corners, 10 cm. from the walls. After 24 hours of the (T1) trial for long-term memory test, the same rats were placed in the same arena as they were placed in T1 trial. Choice phase (T2) rats were allowed to explore the open field for 3 minutes in presence of one familiar object (a3) and one novel object (b) (Amber color glass bottle, 12 cm high and 5 cm in diameter). Familiar objects presented similar textures, colors and sizes. During the T1 and T2 trial, explorations of each object (defined as sniffing, licking, chewing or having moving vibrissae whilst directing the nose towards the object at a distance of less than 1 cm) were recorded separately by stopwatch. Sitting on an object was not regarded as exploratory activity, however, it was rarely observed.
T1 is the total time spent exploring the familiar objects (a1+a2).
T2 is the total time spent exploring the familiar object and novel object (a3+b).
The object recognition test was performed as described by Ennaceur, A., Delacour, J., 1988, A new one-trial test for neurobiological studies of memory in rats—Behavioural data, Behav. Brain Res., 31, 47-59.

[2] = Rodent brain penetration study; format: in vivo, Male Wistar rats; conditions: Wister rats/Male, 3 mg/kg, Per-oral; for Kp at 1 h: male, Wistar, rat, brain homogenate / whole blood, po, 1 h post dose, read-out: Brain Penetration @ 1 h post dose (Cbrain/Cblood)
Experimental: Male Wistar rats (230-280 grams) were used as experimental animals. Three animals were housed in each cage. Animals were given water and food ad libitum throughout the experiment and maintained on a 12 hours light/dark cycle. Brain penetration was determined in discrete manner in rats. One day prior to dosing day, male wistar rats (225-250 grams) were acclimatized. After acclimatization, the rats were grouped according to the weight in each group, 3 animals were kept in individual cage and allowed free access to food and water. At each time point (05, 1, and 2 hrs) n=3 animals were used. The compounds of formula (I) were dissolved in water and administered orally at (free base) 3 mg/kg. Blood samples were removed via, cardiac puncture by using light ether anesthesia the animals were sacrificed to collect brain tissue. Brain samples were homogenized and stored frozen at −20° C. until analysis. The concentrations of the compounds of formula (I) in blood and brain were determined using LC-MS/MS method. The compounds of formula (I) were quantified in blood and brain homogenate by validated LC-MS/MS method using acetonitrile precipitation technique. The compounds of formula (I) were quantified in the calibration range of 1-1000 ng/mL in blood and brain homogenate. Study samples were analyzed using calibration samples in the batch and quality control samples spread across the batch. Extents of brain to blood ratios were calculated (Cbrain/Cblood).

[3] = Rodent pharmacokinetic study; format: in vivo; conditions: rat, whole blood, Wistar rats/Male; for AUC(0-t) / Cmax / Tmax / half-life: blood; for bioavailability: 3 mg/kg Per-Oral vs 1 mg/kg Intravenous
Experimental: Male Wistar rats (230-280 grams) were used as experimental animals. Three to five animals were housed in each cage. One day prior to dosing day, male wistar rats (225-250 grams) were anesthetized with isoflurane for surgical placement of jugular vein catheter. Animals were kept fasted over night and maintained on a 12 hours light/dark cycle. Three rats were dosed with compounds of formula (I) orally (3 mg/Kg) and intravenously (1 mg/kg) in two separate set of animals (n=3 rats/group). At each time point, blood was collected by jugular vein. Blood was stored frozen at […] until analysis. The concentrations of the compounds of formula (I) in blood were determined using LC-MS/MS method. Schedule time points: Pre dose 0.08 (only for i.v.) 0.25, 0.5, 1, 2, 4, 6, 8, and 24 hours after dosing (n=3). The compounds of formula (I) were quantified in blood by validated LC-MS/MS method using acetonitrile precipitation technique. The compounds of formula (I) were quantified in the calibration range of 1-1000 ng/mL in blood. Study samples were analyzed using calibration samples in the batch and quality control samples spread across the batch. Pharmacokinetic parameters Cmax, Tmax, AUCt, T1/2 and Bioavailability were calculated by non-compartmental model using software Pheonix WinNonlin version 6.0.1.

O=C(C=Cc1ccc(OC2CCN(C3CCC3)CC2)cc1)N1CCOCC1.O=C(O)/C=C/C(=O)O [Example 1, 3-[4-(1-Cyclobutylpiperidin-4-yloxy)phenyl]-1-(morpholin-4-yl)prop-2-ene-1-one fumarate salt]
Ki ([1]; fumarate salt): 1.32 nM | Inference (Male Wister rats; 1 mg/kg): Active | Exploration time mean ± S.E.M, Familiar object (Male Wister rats; 1 mg/kg): 5.96 ± 1.03 s | Exploration time mean ± S.E.M, Novel object (Male Wister rats; 1 mg/kg): 14.86 ± 1.92 s | Brain Penetration @ 1 h post dose (Cbrain/Cblood) [2]: 1.40 | AUC(0-t) ([3]; 1 mg/kg, Intravenous): 208 ± 7 ng·h/mL | Cmax ([3]; 1 mg/kg, Intravenous): 214 ± 25 ng/mL | Tmax ([3]; 1 mg/kg, Intravenous): 4.8 min | half-life ([3]; 1 mg/kg, Intravenous): 63 ± 4.2 min | bioavailability [3]: 29 ± 2% | AUC(0-t) ([3]; 3 mg/kg, Per-Oral): 176 ± 10 ng·h/mL | Cmax ([3]; 3 mg/kg, Per-Oral): 106 ± 5 ng/mL | Tmax ([3]; 3 mg/kg, Per-Oral): 30 min | half-life ([3]; 3 mg/kg, Per-Oral): 93.6 ± 25.8 min

O=C(C=Cc1ccc(OC2CCN(C3CCC3)CC2)cc1)N1CCCCC1 [Example 2, 3-[4-(1-Cyclobutylpiperidin-4-yloxy)phenyl]-1-(piperidin-1-yl)prop-2-ene-1-one hydrochloride salt]
Ki [1]: 1.82 nM

O=C(C=Cc1ccc(OC2CCN(C3CCC3)CC2)cc1)N1CCS(=O)(=O)CC1 [Example 3, 3-[4-(1-Cyclobutylpiperidin-4-yloxy)phenyl]-1-(1,1-dioxothiomorpholin-4-yl)prop-2-ene-1-one hydrochloride salt]
Ki [1]: 1.4 nM

O=C(C=Cc1ccc(OC2CCN(C3CCC3)CC2)nc1)N1CCCCC1 [Example 4, 3-[2-(1-Cyclobutylpiperidin-4-yloxy)pyridin-5-yl]-1-(piperidin-1-yl)prop-2-ene-1-one L(+)-Tartarate salt]
Ki [1]: 7.82 nM

O=C(C=Cc1ccc(OC2CCN(C3CCC3)CC2)nc1)N1CCOCC1.O=C(O)C(O)C(O)C(=O)O [Example 5, 3-[2-(1-Cyclobutylpiperidin-4-yloxy)pyridin-5-yl]-1-(morpholin-4-yl)prop-2-ene-1-one L(+)-Tartarate salt]
Ki [1]: 7.9 nM | Inference (Male Wister rats; 3 mg/kg): Active | Exploration time mean ± S.E.M, Familiar object (Male Wister rats; 3 mg/kg): 9.64 ± 2.22 s | Exploration time mean ± S.E.M, Novel object (Male Wister rats; 3 mg/kg): 15.53 ± 2.36 s | Kp at 1 h [2]: 0.92 | AUC(0-t) ([3]; 1 mg/kg, Intravenous): 173 ± 13 ng·h/mL | Cmax ([3]; 1 mg/kg, Intravenous): 220 ± 10 ng/mL | Tmax ([3]; 1 mg/kg, Intravenous): 4.8 min | half-life ([3]; 1 mg/kg, Intravenous): 36 ± 12 min | bioavailability [3]: 35 ± 5% | AUC(0-t) ([3]; 3 mg/kg, Per-Oral): 184 ± 25 ng·h/mL | Cmax ([3]; 3 mg/kg, Per-Oral): 128 ± 6 ng/mL | Tmax ([3]; 3 mg/kg, Per-Oral): 25.2 ± 8.4 min | half-life ([3]; 3 mg/kg, Per-Oral): 66 ± 18 min

CC(C)N1CCC(Oc2ccc(C=CC(=O)N3CCOCC3)c(F)c2)CC1 [Example 6, 3-[2-Fluoro-4-(1-isopropylpiperidin-4-yloxy)phenyl]-1-(morpholin-4-yl)prop-2-ene-1-one L(+)-Tartarate salt]
Ki [1]: 17.5 nM

O=C(C=Cc1ccc(OC2CCN(C3CCC3)CC2)cc1F)N1CCOCC1.O=C(O)C(O)C(O)C(=O)O [Example 7, 3-[2-Fluoro-4-(1-cyclobutylpiperidin-4-yloxy)phenyl]-1-(morpholin-4-yl)prop-2-ene-1-one L(+)-Tartarate salt]
Ki [1]: 2.96 nM | Kp at 1 h [2]: 2.51 | AUC(0-t) ([3]; 1 mg/kg, Intravenous): 167 ± 47 ng·h/mL | Cmax ([3]; 1 mg/kg, Intravenous): 311 ± 110 ng/mL | Tmax ([3]; 1 mg/kg, Intravenous): 4.8 min | half-life ([3]; 1 mg/kg, Intravenous): 36 ± 12 min | bioavailability [3]: 9 ± 5% | AUC(0-t) ([3]; 3 mg/kg, Per-Oral): 49 ± 29 ng·h/mL | Cmax ([3]; 3 mg/kg, Per-Oral): 57 ± 36 ng/mL | Tmax ([3]; 3 mg/kg, Per-Oral): 15 min | half-life ([3]; 3 mg/kg, Per-Oral): 54 ± 36 min

Cc1cc(OC2CCN(C3CCC3)CC2)ccc1C=CC(=O)N1CCOCC1 [Example 8, 3-[4-(1-Cyclobutylpiperidin-4-yloxy)-2-methylphenyl]-1-(morpholin-4-yl)prop-2-ene-1-one L(+)-Tartarate salt]
Ki [1]: 6.34 nM

Cc1cc(OC2CCN(C(C)C)CC2)ccc1C=CC(=O)N1CCOCC1 [Example 9, 3-[4-(1-Isopropylpiperidin-4-yloxy)-2-methylphenyl]-1-(morpholin-4-yl)prop-2-ene-1-one L(+)-Tartarate salt]
Ki [1]: 13.1 nM

O=C(C=Cc1ccc(OC2CCN(C3CCC3)CC2)cc1)N1CCOCC1.O=C(O)C(O)C(O)C(=O)O [Example 10, 3-[4-(1-Cyclobutylpiperidin-4-yloxy)phenyl]-1-(morpholin-4-yl)prop-2-ene-1-one L(+)-Tartarate salt]
Ki [1]: 3.43 nM | Kp at 1 h [2]: 1.36 | AUC(0-t) ([3]; 1 mg/kg, Intravenous): 222 ± 33 ng·h/mL | Cmax ([3]; 1 mg/kg, Intravenous): 285 ± 46 ng/mL | Tmax ([3]; 1 mg/kg, Intravenous): 4.8 min | half-life ([3]; 1 mg/kg, Intravenous): 48 ± 3 min | bioavailability [3]: 58 ± 6% | AUC(0-t) ([3]; 3 mg/kg, Per-Oral): 387 ± 38 ng·h/mL | Cmax ([3]; 3 mg/kg, Per-Oral): 290 ± 32 ng/mL | Tmax ([3]; 3 mg/kg, Per-Oral): 15 min | half-life ([3]; 3 mg/kg, Per-Oral): 51 ± 8.4 min

COc1cc(C=CC(=O)N2CCOCC2)ccc1OC1CCN(C2CCC2)CC1 [Example 11, 3-[4-(1-Cyclobutylpiperidin-4-yloxy)-3-methoxyphenyl]-1-(morpholin-4-yl)prop-2-ene-1-one L(+)-Tartarate salt]
Ki [1]: 77.2 nM

CC(C)CN1CCC(Oc2ccc(C=CC(=O)N3CCOCC3)cc2)CC1 [Example 18, 3-[4-(1-Isobutylpiperidin-4-yloxy)phenyl]-1-(morpholin-4-yl)prop-2-ene-1-one]
Ki [1]: 32.4 nM

CC(C)N1CCC(Oc2ccc(C=CC(=O)N3CCOCC3)cc2Br)CC1 [Example 19, 3-[3-Bromo-4-(1-isopropylpiperidin-4-yloxy)phenyl]-1-(morpholin-4-yl)prop-2-ene-1-one]
Ki [1]: 17 nM

O=C(C=Cc1ccc(OC2CCN(C3CCC3)CC2)c(Br)c1)N1CCOCC1 [Example 20, 3-[3-Bromo-4-(1-cyclobutylpiperidin-4-yloxy)phenyl]-1-(morpholin-4-yl)prop-2-ene-1-one]
Ki [1]: 5.97 nM

O=C(C=Cc1ccc(OC2CCN(CC3CC3)CC2)c(Br)c1)N1CCOCC1 [Example 22, 3-[3-Bromo-4-(1-cyclopropylmethylpiperidin-4-yloxy)phenyl]-1-(morpholin-4-yl)prop-2-ene-1-one]
Ki [1]: 52.6 nM

O=C(C=Cc1ccc(OC2CCN(C3CCC3)CC2)cc1Cl)N1CCOCC1 [Example 25, 3-[2-Chloro-4-(1-cyclobutylpiperidin-4-yloxy)phenyl]-1-(morpholin-4-yl)prop-2-ene-1-one]
Ki [1]: 29.7 nM
